# Test results: patent publication US10519107B2, “Sulfonamide compounds and their use as STAT5 inhibitors” (Governing Council of the University of Toronto, priority 2014, dated 2019)
# How the values were obtained:
# [1] = test system: phosphorylated STAT5 (Y694); experiment: Western blotting of pSTAT5 in K562 cells; type: cell-based, Human; conditions: K562, 5 hrs
# Protocol: (§1) Human erythroleukemia K562 and MV-4-11 cells were cultured in Iscove's modified dulbecco's medium (Gibco) supplemented with 10% FBS (Sigma). Breast carcinoma lines MDA-MB-231 and MDA-MB-468 were grown in dulbecco's modified eagles medium (DMEM) supplemented with 10% FBS (sigma). For downregulation of STAT5 activity, cells were treated with 5, 10, 15, 20 μM of 13a-d STAT5 compounds, for 3 h and 5 h time points. As a control, cells were treated with the DMSO alone.
# [2] = test system: MV-4;11 (FLT3-ITD) AML cells; experiment: CellTiter-Blue cell viability assay, MV-4;11; type: cell-based, Human
# Protocol: as §1
# Cell viability was assessed following treatment at various concentrations of inhibitor (0.78-50 μM) using a CellTiter-Blue cell viability assay (72 hours).
# [3] = Metabolic stability in pooled human liver s9 fractions with NADPH; type: in vitro ADME; conditions: 60 min
# Protocol: For the pooled s9 fractions, solution of the s9 fraction along with NADPH was added to each well. […] The positive control used in the assay was Verapamil, a known drug to be metabolized by liver enzymes. The reaction was started by the addition of 13a and performed in duplicate. Aliquots were taken from the reaction solution at 0 min and 60 min. The reaction was stopped by the addition of cold methanol. Samples were then analyzed through LC-MS/MS to determine the metabolic profile.
# [4] = type: in vitro ADME; conditions: mouse
# Text: Within these studies, a series of phase I and phase II metabolites within mouse hepatocytes were identified. […] Each peak from the initial mass spectrum is rerun through a tandem mass spec to identify the major peak along with the corresponding fractionation patterns of that metabolite. […] Peak 2 on the other hand is a combination of both phase I and phase II metabolism. […] Most likely, we deduced the acetylation is occurring at the acid position of the salicylic acid moiety, FIG. 11.
# Based on the fragmentation pattern, the most likely site of oxidation could reside on the glycine core or the benzyl ring of the salicylic acid, FIG. 12.
smiles,measurement,setting,value
"CC(C)(C)c1cc(CN(C(=O)CN(Cc2ccc(Cl)cc2)S(=O)(=O)c2c(F)c(F)c(F)c(F)c2F)c2ccc(C(=O)O)c(O)c2)cc(C(C)(C)C)c1 [Compound 13a, 4-(2-((N-(4-chlorobenzyl)-2,3,4,5,6-pentafluorophenyl)sulfonamido)-N-(3,5-di-tert-butylbenzyl)acetamido)-2-hydroxybenzoic Acid]",levels of phosphorylated STAT5 (Y694),[1],decreased pSTAT5 in a dose dependant manner and ablated pSTAT5 above 10 μM
same,total STAT5 concentration or cleavable PARP-1,[1],no change
same,effect on MV-4;11 cells,[2]; 10 μM,abolished
same,IC50,"[2]; Homo sapiens, MV4-11, 72 hours, CellTiter-Blue",3.5 µM
same,recovered in human liver s9 (HLS9) fractions,[3],59.82%
same,intact compound recovered,[4]; 240 min,majority of intact 13a is recovered
same,"glutathione derivatives, collective share of metabolites recovered",[4]; 4 h,10%
same,parent compound recoverable,[4]; 4 h,> 85%
